Measurements as given in ChEMBL document CHEMBL2311529, “Structure-activity relationships in 1,4-benzodioxan-related compounds. 11. (1) reversed enantioselectivity of 1,4-dioxane derivatives in α1-adrenergic and 5-HT1A receptor binding sites recognition” (J Med Chem, 2013).

What was measured:
[1] = test system: PC-3; experiment: Ratio of LC50 for human PC3 cells transfected with sialpha1D-AR to LC50 for human PC3 cells; format: functional
[2] = test system: PC-3; experiment: Cytotoxicity against human PC3 cells transfected with sialpha1D-AR assessed as concentration required for tumor growth inhibition after 48 hrs by sulforhodamine B assay; format: functional; settings: PC-3, 48 h
[3] = test system: PC-3; experiment: Cytotoxicity against human PC3 cells after 48 hrs by sulforhodamine B assay; format: functional; settings: PC-3, 48 h
[4] = test system: PC-3; experiment: Cytotoxicity against human PC3 cells transfected with siGLO assessed as concentration required for tumor growth inhibition after 48 hrs by sulforhodamine B assay; format: functional; settings: PC-3, 48 h
[5] = biological target: T1, Alpha-1B adrenergic receptor (Homo sapiens, UniProt P35368); experiment: Displacement of [3H]prazosin from human recombinant alpha1B adrenergic receptor expressed in CHO cell membranes after 30 mins
T1 sequence (P35368 whole entry): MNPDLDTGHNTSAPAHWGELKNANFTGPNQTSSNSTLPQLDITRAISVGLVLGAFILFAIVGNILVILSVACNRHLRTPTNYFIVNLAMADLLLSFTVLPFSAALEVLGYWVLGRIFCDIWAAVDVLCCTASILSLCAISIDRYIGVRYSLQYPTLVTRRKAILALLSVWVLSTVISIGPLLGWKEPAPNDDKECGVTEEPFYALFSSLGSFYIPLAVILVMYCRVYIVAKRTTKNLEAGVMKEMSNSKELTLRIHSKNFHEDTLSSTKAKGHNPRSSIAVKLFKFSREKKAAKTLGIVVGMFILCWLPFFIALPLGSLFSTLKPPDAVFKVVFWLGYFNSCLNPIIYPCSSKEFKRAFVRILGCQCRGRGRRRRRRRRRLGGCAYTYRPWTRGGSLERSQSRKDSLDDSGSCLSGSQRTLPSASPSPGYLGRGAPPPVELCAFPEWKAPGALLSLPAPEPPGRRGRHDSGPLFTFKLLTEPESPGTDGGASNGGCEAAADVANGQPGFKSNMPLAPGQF

[6] = biological target: T2, Alpha-1D adrenergic receptor (Homo sapiens, UniProt P25100); experiment: Displacement of [3H]prazosin from human recombinant alpha1D adrenergic receptor expressed in CHO cell membranes after 30 mins
T2 sequence (P25100 whole entry): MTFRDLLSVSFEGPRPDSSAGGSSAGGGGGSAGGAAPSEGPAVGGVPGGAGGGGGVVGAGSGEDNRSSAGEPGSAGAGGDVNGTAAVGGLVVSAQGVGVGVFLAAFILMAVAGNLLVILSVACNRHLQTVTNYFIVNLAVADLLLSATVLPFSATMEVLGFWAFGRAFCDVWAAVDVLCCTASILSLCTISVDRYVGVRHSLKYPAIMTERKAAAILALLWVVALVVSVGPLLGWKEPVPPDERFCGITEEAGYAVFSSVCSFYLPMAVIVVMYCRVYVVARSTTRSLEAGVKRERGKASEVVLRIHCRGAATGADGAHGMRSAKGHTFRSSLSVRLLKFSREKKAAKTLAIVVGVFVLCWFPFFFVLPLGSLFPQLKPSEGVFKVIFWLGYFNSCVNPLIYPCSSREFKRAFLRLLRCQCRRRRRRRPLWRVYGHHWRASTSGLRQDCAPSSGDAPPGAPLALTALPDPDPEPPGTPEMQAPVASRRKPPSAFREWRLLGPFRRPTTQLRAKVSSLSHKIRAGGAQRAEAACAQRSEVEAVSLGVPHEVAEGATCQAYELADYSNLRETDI

[7] = biological target: T3, 5-hydroxytryptamine receptor 1A (Homo sapiens) (UniProt P08908); settings: HeLa
T3 sequence (whole entry): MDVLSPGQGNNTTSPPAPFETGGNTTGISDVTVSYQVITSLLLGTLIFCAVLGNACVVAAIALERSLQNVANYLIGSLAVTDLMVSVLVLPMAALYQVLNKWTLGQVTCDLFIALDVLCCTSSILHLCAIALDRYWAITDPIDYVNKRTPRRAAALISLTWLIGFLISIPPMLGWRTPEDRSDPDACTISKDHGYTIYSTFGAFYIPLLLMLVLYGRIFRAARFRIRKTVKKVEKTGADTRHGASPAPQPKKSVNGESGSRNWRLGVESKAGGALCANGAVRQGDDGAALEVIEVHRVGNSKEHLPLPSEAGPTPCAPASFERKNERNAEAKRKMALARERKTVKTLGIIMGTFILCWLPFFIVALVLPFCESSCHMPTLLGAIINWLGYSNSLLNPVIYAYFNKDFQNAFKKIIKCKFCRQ
Description: Partial agonist activity at human 5HT1A receptor expressed in HeLa cell membranes after 20 mins by [35S]GTPgammaS binding assay

[8] = biological target: T4, Alpha-1A adrenergic receptor (Homo sapiens, UniProt P35348); experiment: biochemical
T4 sequence (P35348 whole entry): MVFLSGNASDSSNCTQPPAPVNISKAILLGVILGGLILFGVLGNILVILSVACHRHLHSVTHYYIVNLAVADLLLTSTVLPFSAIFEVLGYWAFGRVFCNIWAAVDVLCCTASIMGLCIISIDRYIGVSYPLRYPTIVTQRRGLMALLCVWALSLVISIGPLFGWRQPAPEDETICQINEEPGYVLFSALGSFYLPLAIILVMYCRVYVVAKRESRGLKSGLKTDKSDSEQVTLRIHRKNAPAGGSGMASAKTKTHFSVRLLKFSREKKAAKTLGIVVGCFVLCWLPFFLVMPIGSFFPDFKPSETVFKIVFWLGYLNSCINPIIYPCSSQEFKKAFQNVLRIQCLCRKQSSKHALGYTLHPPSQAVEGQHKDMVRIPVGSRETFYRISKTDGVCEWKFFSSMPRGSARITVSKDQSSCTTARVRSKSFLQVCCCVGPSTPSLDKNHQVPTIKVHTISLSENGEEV
Description: Displacement of [3H]prazosin from human recombinant alpha1A adrenergic receptor expressed in CHO cell membranes after 30 mins

[9] = test system: PC-3; experiment: Ratio of GI50 for human PC3 cells transfected with sialpha1D-AR to GI50 for human PC3 cells; format: functional
[10] = test system: PC-3; experiment: Ratio of concentration required for tumor growth inhibition of human PC3 cells transfected with sialpha1D-AR to concentration required for tumor growth inhibition of human PC3 cells; format: functional
[11] = test system: PC-3; experiment: Cytotoxicity against human PC3 cells transfected with siGLO after 48 hrs by sulforhodamine B assay; format: functional; settings: PC-3, 48 h; for CC50: read-out: LC50 (the source's name)
[12] = test system: PC-3; experiment: Cytotoxicity against human PC3 cells transfected with sialpha1D-AR after 48 hrs by sulforhodamine B assay; format: functional; settings: PC-3, 48 h; for CC50: read-out: LC50 (the source's name)
[13] = test system: PC-3; experiment: Cytotoxicity against human PC3 cells assessed as concentration required for tumor growth inhibition after 48 hrs by sulforhodamine B assay; format: functional; settings: PC-3, 48 h
[14] = biological target: T5, 5-hydroxytryptamine receptor 1A (Homo sapiens, UniProt P08908); experiment: Displacement of [3H]8-OH-DPAT from human recombinant 5HT1A receptor expressed in HeLa cell membranes after 30 mins
T5 sequence (P08908 whole entry): T3 sequence (whole entry)

[15] = biological target: T3, 5-hydroxytryptamine receptor 1A (Homo sapiens); settings: HeLa; remark: listed apart in the source
Description: Agonist activity at human 5HT1A receptor expressed in HeLa cell membranes by [35S]GTPgammaS binding assay

Compound: c1ccc(OCCNC[C@@H]2COCC(c3ccccc3)(c3ccccc3)O2)cc1
- RatioLC50 [1]: 13
- TGI [2]: 27100 nM
- GI50 [3]: 600 nM
- LC50 [3]: 4000 nM
- TGI [4]: 2500 nM
- Ki [5]: 52.5 nM
- Ki [6]: 3.24 nM
- pD2 [7]: 7.82
- Ki [8]: 129 nM
- RatioGI50 [9]: 17
- Ratio [10]: 12.9
- GI50 [11]: 900 nM
- CC50 [11]: 5800 nM
- GI50 [12]: 10200 nM
- CC50 [12]: 52100 nM
- TGI [13]: 2100 nM
- Ki [14]: 1.48 nM

Compound: COc1cc2nc(N3CCN(C(=O)C4COc5ccccc5O4)CC3)nc(N)c2cc1OC (stereo unspecified) [DOXAZOSIN]
- GI50 [3]: 26900 nM

Compound: COc1cccc(OC)c1OCCNC[C@@H]1COCC(c2ccccc2)(c2ccccc2)O1
- GI50 [3]: 32000 nM
- LC50 [3]: 65000 nM
- Ki [5]: 195 nM
- Ki [6]: 56.2 nM
- Ki [8]: 166 nM
- TGI [13]: 58000 nM
- Ki [14]: 44.7 nM
- pD2 [15]: 5.88

Compound: COc1ccccc1OCCNC[C@@H]1COCC(c2ccccc2)(c2ccccc2)O1
- GI50 [3]: 4000 nM
- Ki [5]: 21.9 nM
- Ki [6]: 1.38 nM
- pD2 [7]: 7.7
- Ki [8]: 16.6 nM
- TGI [13]: 9000 nM
- Ki [14]: 0.603 nM

Compound: COc1ccccc1OCCNC[C@H]1COCC(c2ccccc2)(c2ccccc2)O1
- GI50 [3]: 21000 nM
- Ki [5]: 417 nM
- Ki [6]: 25.1 nM
- pD2 [7]: 9.19
- Ki [8]: 257 nM
- TGI [13]: 34000 nM
- Ki [14]: 0.309 nM

Compound: COc1cccc(OC)c1OCCNC[C@H]1COc2ccccc2O1
- Ki [14]: 2.45 nM

Compound: COc1cccc(OC)c1OCCNC[C@@H]1COc2ccccc2O1
- Ki [14]: 40.7 nM

Compound: NCCc1c[nH]c2ccc(O)cc12
- pD2 [15]: 7.3

Compound: c1ccc(OCCNCC2COCC(c3ccccc3)(c3ccccc3)O2)cc1 (racemic)
- TGI [2]: 25000 nM
- GI50 [3]: 3000 nM
- LC50 [3]: 8000 nM
- TGI [4]: 7100 nM
- Ki [5]: 120 nM
- Ki [6]: 3.63 nM
- Ki [8]: 170 nM
- GI50 [11]: 4100 nM
- CC50 [11]: 10700 nM
- GI50 [12]: 23600 nM
- CC50 [12]: 39800 nM
- TGI [13]: 6000 nM
- Ki [14]: 0.589 nM
- pD2 [15]: 9.11

Compound: COc1ccccc1N1CCN(CCN2C(=O)CC3(CCCC3)CC2=O)CC1
- pD2 [15]: 9.27

Compound: COc1cccc(OC)c1OCCNCC1COc2ccccc2O1 (stereo unspecified)
- GI50 [3]: 64600 nM

Compound: COc1ccccc1OCCNCC1COCC(c2ccccc2)(c2ccccc2)O1 (racemic)
- GI50 [3]: 9000 nM
- Ki [5]: 56.2 nM
- Ki [6]: 1.15 nM
- Ki [8]: 27.5 nM
- TGI [13]: 16000 nM
- Ki [14]: 0.661 nM
- pD2 [15]: 9.4

Compound: c1ccc(OCCNC[C@H]2COCC(c3ccccc3)(c3ccccc3)O2)cc1
- TGI [2]: 49200 nM
- GI50 [3]: 19100 nM
- LC50 [3]: > 300000 nM
- TGI [4]: 41700 nM
- Ki [5]: 170 nM
- Ki [6]: 83.2 nM
- pD2 [7]: 9.19
- Ki [8]: 437 nM
- GI50 [11]: 22800 nM
- CC50 [11]: > 300000 nM
- GI50 [12]: 20700 nM
- CC50 [12]: > 300000 nM
- TGI [13]: 43000 nM
- Ki [14]: 0.398 nM

Compound: COc1cccc(OC)c1OCCNCC1COCC(c2ccccc2)(c2ccccc2)O1 (racemic)
- GI50 [3]: 14000 nM
- LC50 [3]: 45000 nM
- Ki [5]: 324 nM
- Ki [6]: 66.1 nM
- Ki [8]: 339 nM
- TGI [13]: 32000 nM
- Ki [14]: 1.41 nM
- pD2 [15]: 8.28

Compound: COc1cccc(OC)c1OCCNC[C@H]1COCC(c2ccccc2)(c2ccccc2)O1
- GI50 [3]: 16000 nM
- LC50 [3]: 37000 nM
- Ki [5]: 1660 nM
- Ki [6]: 724 nM
- Ki [8]: > 1000 nM
- TGI [13]: 30000 nM
- Ki [14]: 0.55 nM
- pD2 [15]: 8.3
